Assay results from PubChem BioAssay AID1963431 (Molecular Pharmacology Branch, DTP, NCI, 2024).

System: Rh18 complex spheroid viability, percent test/control
Test: Anticancer human tumor Rh18 cell line growth inhibition [Asc];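 also: spheroids exposed to compound for 7 days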;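 as to viability, T/C: 100% = DMSO vehicle control wells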
Conditions: for IC50: curve of first compound; for viability, T/C: stronger effect = lower value
How it was run: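 Stromal components (HUVEC and hMSC) are co-assembled with the cancer cells into multicellular spheroids. Drugs are then added singly or paired, at concentrations falling by half-log increments from a clinically achievable maximum, capped at 10 microM without known Cmax.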

[1] = second compound 0.1 µM, first compound 0.0316 µM
[2] = second compound 0.1 µM, first compound 0.1 µM
[3] = second compound 0.1 µM, first compound 0.316 µM
[4] = second compound 0.1 µM, first compound 1 µM
[5] = second compound 0.1 µM, first compound 3.16 µM
[6] = second compound 0.1 µM, first compound 10 µM
[7] = second compound 0.316 µM, first compound 0.0316 µM
[8] = second compound 0.316 µM, first compound 0.1 µM
[9] = second compound 0.316 µM, first compound 0.316 µM
[10] = second compound 0.316 µM, first compound 1 µM
[11] = second compound 0.316 µM, first compound 3.16 µM
[12] = second compound 0.316 µM, first compound 10 µM
[13] = second compound 1 µM, first compound 0.0316 µM
[14] = second compound 1 µM, first compound 0.1 µM
[15] = second compound 1 µM, first compound 0.316 µM
[16] = second compound 1 µM, first compound 1 µM
[17] = second compound 1 µM, first compound 3.16 µM
[18] = second compound 1 µM, first compound 10 µM
[19] = second compound 3.16 µM, first compound 0.0316 µM
[20] = second compound 3.16 µM, first compound 0.1 µM
[21] = second compound 3.16 µM, first compound 0.316 µM
[22] = second compound 3.16 µM, first compound 1 µM
[23] = second compound 3.16 µM, first compound 3.16 µM
[24] = second compound 3.16 µM, first compound 10 µM
[25] = second compound 10 µM, first compound 0.0316 µM
[26] = second compound 10 µM, first compound 0.1 µM
[27] = second compound 10 µM, first compound 0.316 µM
[28] = second compound 10 µM, first compound 1 µM
[29] = second compound 10 µM, first compound 3.16 µM
[30] = second compound 10 µM, first compound 10 µM

`C=C(F)C(=O)N1CCN(c2nc(OCC3CCCN3C)nc3c2CCN(c2cccc4cccc(Cl)c24)C3)CC1CC#N` (stereo not given) + Cc1c(S(C)(=O)=O)c(-c2cc(F)cc(N3CCN(c4ccc(NS(=O)(=O)c5ccc(NC(CCN6CCC(C(=O)OCCCP(=O)(O)O)CC6)CSc6ccccc6)c(S(=O)(=O)C(F)(F)F)c5)cc4)CC3)c2)c(-c2ccc(Cl)cc2)n1C(C)C gave an IC50 (second compound 0.1 µM) of less than 31.6 nM, an IC50 (second compound 0.316 µM) of less than 31.6 nM and an IC50 (second compound 1 µM) of less than 31.6 nM. It also gave an IC50 (second compound 3.16 µM) of less than 31.6 nM, an IC50 (second compound 10 µM) of less than 31.6 nM and a viability, T/C [1] of 13.9%. The viability, T/C [2] was 14.1%, the viability, T/C [3] was 16.8% and the viability, T/C [4] was 18.4%. It also gave a viability, T/C [5] of 4.57%, a viability, T/C [6] of 0.19% and a viability, T/C [7] of 6.98%. For the same molecule, the viability, T/C [8] was 8.95%, the viability, T/C [9] was 10.2% and the viability, T/C [10] was 10.4%. The viability, T/C [11] was 1.87%, the viability, T/C [12] was 0.13% and the viability, T/C [13] was 7.24%. The viability, T/C [14] was 8.76%, the viability, T/C [15] was 10.9% and the viability, T/C [16] was 8.02%. The viability, T/C [17] was 0.6%, the viability, T/C [18] was 0.14% and the viability, T/C [19] was 7.34%. The viability, T/C [20] was 7.03%, the viability, T/C [21] was 8.15% and the viability, T/C [22] was 4.6%. The viability, T/C [23] was 0.19%, the viability, T/C [24] was 0.18% and the viability, T/C [25] was 4.96%. The viability, T/C [26] was 5.5%, the viability, T/C [27] was 5.96% and the viability, T/C [28] was 4.82%. It also gave a viability, T/C [29] of 0.38% and a viability, T/C [30] of 0.23%.
`C=CC(=O)N1CCN(c2nc(=O)n(-c3c(C)ccnc3C(C)C)c3nc(-c4c(O)cccc4F)c(F)cc23)C(C)C1` (stereo not given) + Cc1c(S(C)(=O)=O)c(-c2cc(F)cc(N3CCN(c4ccc(NS(=O)(=O)c5ccc(NC(CCN6CCC(C(=O)OCCCP(=O)(O)O)CC6)CSc6ccccc6)c(S(=O)(=O)C(F)(F)F)c5)cc4)CC3)c2)c(-c2ccc(Cl)cc2)n1C(C)C gave an IC50 (second compound 0.1 µM) of less than 31.6 nM, an IC50 (second compound 0.316 µM) of less than 31.6 nM and an IC50 (second compound 1 µM) of less than 31.6 nM. The IC50 (second compound 3.16 µM) was less than 31.6 nM, the IC50 (second compound 10 µM) was less than 31.6 nM and the viability, T/C [1] was 15.2%. For the same molecule, the viability, T/C [2] was 17%, the viability, T/C [3] was 15.5% and the viability, T/C [4] was 19%. It also gave a viability, T/C [5] of 20.8%, a viability, T/C [6] of 29.2% and a viability, T/C [7] of 11.4%. For the same molecule, the viability, T/C [8] was 11.5%, the viability, T/C [9] was 11.4% and the viability, T/C [10] was 12.6%. For the same molecule, the viability, T/C [11] was 15.1%, the viability, T/C [12] was 17.5% and the viability, T/C [13] was 8.27%. The viability, T/C [14] was 8.47%, the viability, T/C [15] was 8.62% and the viability, T/C [16] was 7.63%. It also gave a viability, T/C [17] of 11.4%, a viability, T/C [18] of 15% and a viability, T/C [19] of 6.03%. The viability, T/C [20] was 8.21%, the viability, T/C [21] was 7.26% and the viability, T/C [22] was 8.5%. The viability, T/C [23] was 7.74%, the viability, T/C [24] was 13.2% and the viability, T/C [25] was 3.36%. The viability, T/C [26] was 5.72%, the viability, T/C [27] was 4.34% and the viability, T/C [28] was 7.21%. The viability, T/C [29] was 5.57% and the viability, T/C [30] was 13%.
`CCN1C(C(=O)NC23CCC(C(=O)O)(CC2)CC3)C(c2cccc(Cl)c2F)C2(C(=O)Nc3cc(Cl)ccc32)C12CCCCC2` (stereo not given) + Cc1c(S(C)(=O)=O)c(-c2cc(F)cc(N3CCN(c4ccc(NS(=O)(=O)c5ccc(NC(CCN6CCC(C(=O)OCCCP(=O)(O)O)CC6)CSc6ccccc6)c(S(=O)(=O)C(F)(F)F)c5)cc4)CC3)c2)c(-c2ccc(Cl)cc2)n1C(C)C showed an IC50 (second compound 0.1 µM) of less than 9.49 nM, an IC50 (second compound 0.316 µM) of less than 9.49 nM and an IC50 (second compound 1 µM) of less than 9.49 nM. The IC50 (second compound 3.16 µM) was less than 9.49 nM, the IC50 (second compound 10 µM) was less than 9.49 nM and the viability, T/C (second compound 0.1 µM, first compound 0.00949 µM) was 19%. It also gave a viability, T/C (second compound 0.1 µM, first compound 0.03 µM) of 21%, a viability, T/C (second compound 0.1 µM, first compound 0.0949 µM) of 10.3% and a viability, T/C (second compound 0.1 µM, first compound 0.3 µM) of 6.82%. It also gave a viability, T/C (second compound 0.1 µM, first compound 0.949 µM) of 7.29%, a viability, T/C (second compound 0.1 µM, first compound 3 µM) of 3.96% and a viability, T/C (second compound 0.316 µM, first compound 0.00949 µM) of 12%. For the same molecule, the viability, T/C (second compound 0.316 µM, first compound 0.03 µM) was 16.4%, the viability, T/C (second compound 0.316 µM, first compound 0.0949 µM) was 7.76% and the viability, T/C (second compound 0.316 µM, first compound 0.3 µM) was 5.97%. It also gave a viability, T/C (second compound 0.316 µM, first compound 0.949 µM) of 4.04%, a viability, T/C (second compound 0.316 µM, first compound 3 µM) of 0.91% and a viability, T/C (second compound 1 µM, first compound 0.00949 µM) of 8.76%. For the same molecule, the viability, T/C (second compound 1 µM, first compound 0.03 µM) was 8.85%, the viability, T/C (second compound 1 µM, first compound 0.0949 µM) was 5.21% and the viability, T/C (second compound 1 µM, first compound 0.3 µM) was 4.08%. It also gave a viability, T/C (second compound 1 µM, first compound 0.949 µM) of 1.55%, a viability, T/C (second compound 1 µM, first compound 3 µM) of 0.87% and a viability, T/C (second compound 3.16 µM, first compound 0.00949 µM) of 6.63%. The viability, T/C (second compound 3.16 µM, first compound 0.03 µM) was 5.76%, the viability, T/C (second compound 3.16 µM, first compound 0.0949 µM) was 4.28% and the viability, T/C (second compound 3.16 µM, first compound 0.3 µM) was 3.45%. The viability, T/C (second compound 3.16 µM, first compound 0.949 µM) was 0.93%, the viability, T/C (second compound 3.16 µM, first compound 3 µM) was 0.73% and the viability, T/C (second compound 10 µM, first compound 0.00949 µM) was 5.47%. For the same molecule, the viability, T/C (second compound 10 µM, first compound 0.03 µM) was 3.7%, the viability, T/C (second compound 10 µM, first compound 0.0949 µM) was 2.69% and the viability, T/C (second compound 10 µM, first compound 0.3 µM) was 1.52%. The viability, T/C (second compound 10 µM, first compound 0.949 µM) was 0.64% and the viability, T/C (second compound 10 µM, first compound 3 µM) was 0.73%.
`CNC(C)C(=O)NC1CN(S(=O)(=O)c2cccc(S(=O)(=O)N3CCC4CCC(C(=O)NC(c5ccccc5)c5ccccc5)N4C(=O)C(NC(=O)C(C)NC)C3)c2)CCC2CCC(C(=O)NC(c3ccccc3)c3ccccc3)N2C1=O` (stereo not given) + Cc1c(S(C)(=O)=O)c(-c2cc(F)cc(N3CCN(c4ccc(NS(=O)(=O)c5ccc(NC(CCN6CCC(C(=O)OCCCP(=O)(O)O)CC6)CSc6ccccc6)c(S(=O)(=O)C(F)(F)F)c5)cc4)CC3)c2)c(-c2ccc(Cl)cc2)n1C(C)C gave an IC50 (second compound 0.1 µM) of less than 3.16 nM, an IC50 (second compound 0.316 µM) of less than 3.16 nM and an IC50 (second compound 1 µM) of less than 3.16 nM. For the same molecule, the IC50 (second compound 3.16 µM) was less than 3.16 nM, the IC50 (second compound 10 µM) was less than 3.16 nM and the viability, T/C (second compound 0.1 µM, first compound 0.00316 µM) was 11.9%. For the same molecule, the viability, T/C (second compound 0.1 µM, first compound 0.01 µM) was 9.77%, the viability, T/C [1] was 7.82% and the viability, T/C [2] was 7.58%. The viability, T/C [3] was 5.36%, the viability, T/C [4] was 6.51% and the viability, T/C (second compound 0.316 µM, first compound 0.00316 µM) was 8.42%. It also gave a viability, T/C (second compound 0.316 µM, first compound 0.01 µM) of 7.07%, a viability, T/C [7] of 8.09% and a viability, T/C [8] of 5.52%. For the same molecule, the viability, T/C [9] was 3.69%, the viability, T/C [10] was 5.21% and the viability, T/C (second compound 1 µM, first compound 0.00316 µM) was 7.09%. For the same molecule, the viability, T/C (second compound 1 µM, first compound 0.01 µM) was 5.98%, the viability, T/C [13] was 4.86% and the viability, T/C [14] was 4.96%. It also gave a viability, T/C [15] of 4.99%, a viability, T/C [16] of 4.12% and a viability, T/C (second compound 3.16 µM, first compound 0.00316 µM) of 4.15%. The viability, T/C (second compound 3.16 µM, first compound 0.01 µM) was 4.41%, the viability, T/C [19] was 3.7% and the viability, T/C [20] was 4.89%. The viability, T/C [21] was 2.21%, the viability, T/C [22] was 3.61% and the viability, T/C (second compound 10 µM, first compound 0.00316 µM) was 5.31%. For the same molecule, the viability, T/C (second compound 10 µM, first compound 0.01 µM) was 4.19%, the viability, T/C [25] was 2.98% and the viability, T/C [26] was 3.4%. It also gave a viability, T/C [27] of 2.94% and a viability, T/C [28] of 2.34%.
